In patent publication US9518104B2, “Compositions and methods for treating multiple sclerosis” (Centre for Addiction and Mental Health, priority 2012, dated 2016):
Where no end group is shown, it is not given here.

Experiments:
myelin = experiment: Luxol Fast Blue staining of myelin in EAE mouse spinal cord; assay type: in vivo; conditions: EAE mice spinal cord; compared to sham
Experimental: At day 30, mice were sacrificed by overdose anesthesia, and the spinal cord was dissected for co-immunoprecipitation analysis. For analysis of central nervous system infiltrates, brain and spinal cord tissues were collected and mononuclear cells were prepared by Percoll gradient centrifugation. For immunological analysis, splenocytes cells were dissected and cultured in vitro. For histological analysis, the same tissue samples were immediately fixed in 4% (wt/vol) paraformaldehyde. Frozen sections of spinal cord were stained with Luxol fast blue for analysis of […].

neurofilament-H = experiment: Neurofilament-H immunostaining, axonal density in EAE mouse spinal cord; assay type: in vivo; conditions: EAE mice spinal cord; compared to sham
Experimental: (§1) Frozen coronal sections of EAE mice spinal cord (10 μm) thickness were cut using a microtome cryostat system (Bright Instruments 5030). All sections were initially incubated in blocking solution (0.1 m PBS, 1% Triton X-100, 0.5% Tween 20, 2% skim milk) or serum-free protein block (Dako Cytomation) for 1 h at room temperature to reduce nonspecific background and then incubated with primary and secondary antibodies overnight at 4° C. The following primary antibodies were used: anti-Iba1 (1:200; Dako), anti-Neurofilament H (1:200), anti-CC1, anti-CNPase (1:200), and anti-NeuN (1:200). Fluorescent secondary antibodies conjugated to Alexa 488 or Rhodamine Red-X (1:200; Invitrogen) or Cy3 (1:100; Jackson ImmunoResearch Laboratories) were used for detection of primary antibodies.

oligodendrocytes = experiment: CNPase- and CC1-labeled oligodendrocytes in EAE mouse spinal cord; assay type: in vivo; conditions: EAE mice, dorsal regions of spinal cord; compared to sham
Experimental: as §1

Iba1+ cells = experiment: Iba1 immunolabeling of macrophages/microglia in EAE mouse spinal cord; assay type: in vivo; conditions: EAE mice; compared to sham
Experimental: as §1
As MS is closely associated with inflammation and autoimmunity, the TAT-G-Gpep peptide was tested to determine if it affects microglial/macrophage recruitment.

inflammation = conditions: EAE (Pitt et al.); cited from earlier work
EAE in rats = conditions: direct application (Smith et al.); cited from earlier work
activated T-cells = conditions: Pitt et al.; cited from earlier work
EAE mice = EAE mice (Fazio et al. 2008); cited from earlier work
GAPDH = molecular target: T1, GAPDH (Rattus norvegicus, UniProt P04797); experiment: Pull-down affinity assay of GluR2-GAPDH interaction; assay type: binding; conditions: solubilized rat hippocampal tissue, approximately 100 μg GST-fusion protein
T1 construct: Rat hippocampus was homogenized in 50 mM Tris-HCl (pH 7.5); from tissue; host or cells: rat hippocampus homogenate
Experimental: Desired DNA sequences of the GluR2 N-terminus were obtained by polymerase chain reaction. The DNA sequences were digested with BamHI and Xhol enzymes to create sticky ends and subsequently incorporated into GST-plasmids (pGEX4T3) through DNA ligation. Following ligation, transformation with DH5a competent cells was performed to amplify the plasmid content. Subsequently, the plasmids were extracted and subjected to sequence confirmation. Having the desired DNA sequences confirmed, the GST-fusion proteins were expressed through the transformation with another strain of competent cells (i.e. BL21). The GST-fusion proteins were then precipitated and purified through glutathione resin (from Genescript).
Rat hippocampus was homogenized in 50 mM Tris-HCl (pH 7.5), 150 mM NaCl, 1% NP-40, 0.5% sodium deoxycholate, 1 mM EDTA, 10% Triton X-100, 1 mM PMSF and protease inhibitor cocktail (Sigma, 5 microl per 100 mg tissue). The hippocampal tissue was further solubilized with 1% Triton X-100 and then centrifuged at 14,000 rpm at 4° C. for 15 mins The solubilized hippocampal tissue (approximately 1 milligram of protein) was incubated with glutathione resin (Genescript) and indicated GST-fusion proteins (approximately 100 μg) at 4° C. overnight and followed by an hour of incubation at room temperature. After the incubation, the samples were washed 4-6 times with 1 mL PBS contained 0.1% Triton X-100. […]

EAE = conditions: Shijie et al. 2009; cited from earlier work
GluR2-GAPDH interaction = conditions: previously shown (PCT/CA2007/001539); cited from earlier work
cytokines = experiment: Bioplex, cytokine profiles in cultured spleenocytes re-stimulated with MOG35-55; assay type: in vivo, mice; conditions: vs the other two groups
Experimental: Cytokine measurement was performed by Bioplex Protein Array (Bio-Plex Pro™ Mouse Cytokine 23-plex Assay) from Bio-Rad as per manufacturer's instruction. EAE mice serum, culture supernatant of spleenocytes in different treatment groups and supernatant of brain infiltrated leukocyte culture were used for bioplex protein array in duplicates. The standard curves were optimized automatically by the software (Bioplex manager) and verified manually. The Bioplex manager software was used to calculate cytokine concentrations. Data is expressed as Mean±SEM.

hippocampal neurons = conditions: animal models of ischemic stroke; previously shown (PCT/CA2007/001539); cited from earlier work

T1 sequence (P04797 whole entry, the tested form may be a part): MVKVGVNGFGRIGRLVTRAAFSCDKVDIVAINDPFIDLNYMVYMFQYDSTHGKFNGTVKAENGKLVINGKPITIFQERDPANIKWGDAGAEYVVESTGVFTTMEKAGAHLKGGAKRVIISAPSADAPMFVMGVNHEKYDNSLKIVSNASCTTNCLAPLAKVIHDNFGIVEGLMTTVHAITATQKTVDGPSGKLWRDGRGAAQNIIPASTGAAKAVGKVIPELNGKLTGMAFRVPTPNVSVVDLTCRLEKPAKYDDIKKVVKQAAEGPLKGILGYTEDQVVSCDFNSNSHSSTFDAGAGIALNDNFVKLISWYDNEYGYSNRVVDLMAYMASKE
GluR2-GAPDH interaction, sequence (P04406 whole entry, the tested form may be a part): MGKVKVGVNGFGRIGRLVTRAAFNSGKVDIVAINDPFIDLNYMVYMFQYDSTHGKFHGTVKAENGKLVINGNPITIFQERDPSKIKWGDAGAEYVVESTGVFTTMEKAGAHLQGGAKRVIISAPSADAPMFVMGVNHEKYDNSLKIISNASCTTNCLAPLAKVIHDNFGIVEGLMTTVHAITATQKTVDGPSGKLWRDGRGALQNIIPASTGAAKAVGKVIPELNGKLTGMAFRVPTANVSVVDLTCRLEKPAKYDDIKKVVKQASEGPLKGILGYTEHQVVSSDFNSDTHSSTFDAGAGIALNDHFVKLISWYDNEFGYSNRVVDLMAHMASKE

## YGRKKRRQRRRAFDLSQYDLKWQVDYLKYDYGTASELRASA (G-Gpep-sc or G-Gpep-scrambled) [TAT-G-Gpep-sc, scrambled G-Gpep control peptide fused to TAT domain]
myelin
  demyelination (myelin in the ventral funiculus): Significant demylenation
neurofilament-H
  area occupied by neurofilament-H: significantly lower
oligodendrocytes
  number of CNPase- and CC1-labeled oligodendrocytes: significantly lower
Iba1+ cells
  number of Iba1+ cells in the dorsal and ventral horns: significantly more macrophages/microglia

## NS(=O)(=O)c1cccc2c1c([N+](=O)[O-])cc1nc(O)c(O)nc12 [NBQX]
inflammation
  amount of inflammation: did not reduce
EAE in rats
  acute and chronic neurological effects of EAE: reduces the acute and chronic neurological effects of EAE
Activated T-cells
  in vitro proliferation of activated T-cells: did not reduce

## O=C(Nc1nc(C(F)(F)F)co1)C1c2ccccc2Oc2ccccc21 [RO0711401]
EAE mice
  motor coordination: improves motor coordination

## GST alone: glutathione S-transferase alone, negative control
GAPDH
  precipitation (pull down) of GAPDH: neither the GST alone nor the GST-fusion protein containing fragment 1 (Tyr142-Leu161 (SEQ ID NO:7)) sufficed to “pull down” GAPDH

## O=c1[nH]c2cc(C(F)(F)F)c(N3CCOCC3)cc2n(CP(=O)(O)O)c1=O [MPQX]
EAE in rats
  acute and chronic neurological effects of EAE: reduces the acute and chronic neurological effects of EAE

## GST-Fragment 2: GST fusion protein of fragment 2, Asp153-Lys172 of GluR2 N-terminus, DSDRGLSTLQAVLDSAAEKK (SEQ ID NO:5) (also: GST fusion protein)
GAPDH
  precipitation (pull down) of GAPDH: able to precipitate GAPDH

## CC1(C)[C@@H](OC(=O)CCC(=O)O)CC[C@]2(C)[C@H]3C(=O)C=C4[C@@H]5C[C@@](C)(C(=O)O)CC[C@]5(C)CC[C@@]4(C)[C@]3(C)CC[C@@H]12 [carbenoxolone]
EAE
  neurological effects of EAE: attenuated

## [N-]=[N+]=CC(=O)CC[C@H](N)C(=O)O [DON, 6-diazo-5-oxo-L-norleucine]
EAE
  neurological effects of EAE: attenuated

## YYQWDKFAYLYDSDRGLSTLQAVLDSAAEKK (GluR2 NT1-3-2) [G-Gpep, interfering peptide, GluR2 NT1-3-2 (Y142-K172)]
GluR2-GAPDH interaction
  disruption of GluR2-GAPDH interactions: capable of disrupting GluR2-GAPDH interactions
cytokines
  immunoreactivity of spleenocytes (most cytokines): significantly suppressed
Hippocampal neurons
  protection of neurons from ischemia-induced cell death: protecting neurons from ischemia-induced cell death
